Laboratory results published in patent US6727268B2, “2-thioxothiazole derivative, method for preparing the same, and pharmaceutical composition containing the same” (CJ Corp., priority 2002, dated 2004).

Key:
COX-1 = target: T1, COX-1 (Homo sapiens, UniProt P23219); assay: Assay for the COX-1 inhibitory activity using U-937 (PGE2 inhibition); assay type: cell-based; conditions: 1 μM test compound; U-937 human lymphoma cells; arachidonic acid substrate; PGE2 vs DMSO control; read-out: Cyclooxygenase (COX) Inhibition (%) COX-1 (1 μM)
T1 construct: host or cells: U-937 human lymphoma cells
Method: The collected cells were diluted with HBSS (×1, Hank's balanced salt solution) to a concentration of 1×10^6 cells/ml. 1 ml of the dilute cell solution was placed into each well of 12-well plates. 5 μl of 1 μM solution of a test compound in DMSO and 5 μl of DMSO as a control were added to the wells. The wells were incubated in CO2 incubator at 37° C. for 15 minutes. Separately, 10 mM stock solution of arachidonic acid in ethanol was diluted ten times in ethanol to prepare 1 mM solution of arachidonic acid. Arachidonic acid acts as a substrate. 10 μl of the 1 mM solution of arachidonic acid was added to each well and incubated at CO2 incubator at 37° C. for 30 minutes. The cell solution of each well was placed in a centrifuge test tube and centrifuged at 10,000 rpm at 4° C. for 5 minutes. The concentration of PGE2 in the collected cells and the supernatant was quantified by means of a monoclonal kit (Cayman Chemicals). The percentages of PGE2 inhibition in a group of the test compound-treated cells in relation to a group of the DMSO-treated cells were calculated. Based on the calculated values, the COX-1 inhibitory activities were evaluated.
(§1) The percentages of the COX inhibition were calculated according to the following equation: [formula]

COX-2 = target: T2, COX-2 (Mus musculus, UniProt Q05769); assay: Assay for the COX-2 inhibitory activity using RAW 264.7 cell line (PGE2, EIA); assay type: cell-based; conditions: RAW264.7, 10 nM test compound, RAW 264.7 cells, aspirin pre-treated, interferon + LPS 18 hours, read-out: Cyclooxygenase (COX) Inhibition (%) COX-2 (10 nM)
T2 construct: host or cells: RAW 264.7 cells, pre-treated with aspirin and induced with interferon and LPS
T2 sequence (Q05769 18-604): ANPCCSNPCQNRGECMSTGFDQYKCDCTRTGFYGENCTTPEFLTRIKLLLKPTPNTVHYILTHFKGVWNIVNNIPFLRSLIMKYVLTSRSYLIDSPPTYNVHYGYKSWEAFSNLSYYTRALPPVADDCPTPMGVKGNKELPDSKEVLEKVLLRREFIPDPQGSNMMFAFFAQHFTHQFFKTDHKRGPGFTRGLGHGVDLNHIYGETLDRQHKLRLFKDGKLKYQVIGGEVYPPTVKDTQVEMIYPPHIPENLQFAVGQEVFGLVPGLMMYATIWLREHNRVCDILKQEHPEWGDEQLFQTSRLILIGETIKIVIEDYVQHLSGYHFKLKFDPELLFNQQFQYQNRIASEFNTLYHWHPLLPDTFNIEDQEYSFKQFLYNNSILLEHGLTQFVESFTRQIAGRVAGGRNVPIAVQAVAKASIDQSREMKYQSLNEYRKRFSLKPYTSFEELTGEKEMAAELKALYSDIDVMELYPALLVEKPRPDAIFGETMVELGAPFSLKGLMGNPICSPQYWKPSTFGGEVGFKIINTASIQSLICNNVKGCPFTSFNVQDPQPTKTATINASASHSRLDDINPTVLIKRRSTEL
Method: Each well was treated with 250 μM of aspirin and incubated at 37° C. for 2 hours. After the culture media were replaced with new culture media, the new culture media were treated with a test compound (10 nM) and incubated for 30 minutes. Then, each well was treated with interferon ? (100 units/ml) and lipopolysaccharide (LPS, 100 ng/ml) and incubated for 18 hours. The culture media were transferred to other test tubes. The concentration of PGE2 was quantified by means of the EIA kit (Cayman Chemicals).
as §1

T1 sequence (P23219 24-599): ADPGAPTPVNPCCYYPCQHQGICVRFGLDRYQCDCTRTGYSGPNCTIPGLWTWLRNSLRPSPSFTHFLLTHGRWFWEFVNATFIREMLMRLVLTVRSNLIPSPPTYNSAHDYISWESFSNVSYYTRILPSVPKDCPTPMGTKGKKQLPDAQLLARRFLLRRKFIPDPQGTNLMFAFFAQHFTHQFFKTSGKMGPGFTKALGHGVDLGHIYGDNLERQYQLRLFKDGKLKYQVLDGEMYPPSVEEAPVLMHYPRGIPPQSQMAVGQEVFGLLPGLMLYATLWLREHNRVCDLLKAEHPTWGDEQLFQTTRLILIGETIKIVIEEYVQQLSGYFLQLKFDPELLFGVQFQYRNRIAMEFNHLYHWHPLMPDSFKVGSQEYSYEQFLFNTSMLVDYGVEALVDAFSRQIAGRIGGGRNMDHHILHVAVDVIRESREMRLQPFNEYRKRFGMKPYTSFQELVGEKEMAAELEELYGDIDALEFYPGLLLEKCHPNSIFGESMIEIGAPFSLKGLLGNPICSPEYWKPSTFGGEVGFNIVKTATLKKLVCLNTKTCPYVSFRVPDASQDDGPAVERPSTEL

SMILES	melting point [°C]	inhibition at 1 µM (COX-1) [%]	inhibition at 0.01 µM (COX-2) [%]
NS(=O)(=O)c1ccc(-n2c(-c3ccc(F)cc3)csc2=S)cc1 [Example 4, 4-[4-(4-fluorophenyl)-2-thioxothiazole-3-yl]benzenesulfonamide]	271	31.1	72.7
NS(=O)(=O)c1ccc(-n2c(-c3ccccc3)csc2=S)cc1 [Example 1, 4-(4-phenyl-2-thioxothiazole-3-yl)benzenesulfonamide]	235	28.5	60.9
Cc1sc(=S)n(-c2ccc(S(N)(=O)=O)cc2)c1-c1ccccc1 [Example 2, 4-(5-methyl-4-phenyl-2-thioxothiazole-3-yl)benzenesulfonamide]	262	35.2	66.5
NS(=O)(=O)c1ccc(-n2c(-c3cccc([N+](=O)[O-])c3)csc2=S)cc1 [Example 5, 4-[4-(3-nitrophenyl)-2-thioxothiazole-3-yl]benzenesulfonamide]	284	15.8	75
CS(=O)(=O)c1ccc(-c2csc(=S)n2-c2ccc(S(N)(=O)=O)cc2)cc1 [Example 3, 4-[4-(4-methanesulfonylphenyl)-2-thioxothiazole-3-yl]benzenesulfo namide]	288	30.7	65.8
Cc1onc(-c2ccccc2)c1-c1ccc(S(N)(=O)=O)cc1 [Reference (Valdecoxib), Valdecoxib, reference compound]		29.5	
NS(=O)(=O)c1ccc(-n2c(-c3ccc(Cl)cc3)csc2=S)cc1 [Example 6, 4-[4-(4-chlorophenyl)-2-thioxothiazole-3-yl]benzenesulfonamide]	242	38.5	73.5
